Test results: patent US12344597B2, “Alkoxy-substituted pyridinyl derivatives as LPA1 receptor antagonists and their use in the treatment of fibrosis” (IDORSIA PHARMACEUTICALS LTD, priority 2018, dated 2025)

Molecular target: human LPA1 receptor (Homo sapiens (Human), UniProt Q92633)
Experiment: Beta-arrestin recruitment assay to determine IC50 values for human LPAR1
Assay type: cell-based
Details: antagonist mode, Tango EDG2-bla U2OS cells, LPA 18:1 500 nM final
In short: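 Antagonist IC50 = concentration giving 50% inhibition of maximal LPA response. Read-out is beta-lactamase reporter activity after arrestin-protease recruitment in U2OS cells bearing LPA1-TEV-Gal4-VP16 construct; cells pre-incubated 20 h, 37 °C, 5% CO2.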

human LPA1 receptor, sequence (Q92633 whole entry): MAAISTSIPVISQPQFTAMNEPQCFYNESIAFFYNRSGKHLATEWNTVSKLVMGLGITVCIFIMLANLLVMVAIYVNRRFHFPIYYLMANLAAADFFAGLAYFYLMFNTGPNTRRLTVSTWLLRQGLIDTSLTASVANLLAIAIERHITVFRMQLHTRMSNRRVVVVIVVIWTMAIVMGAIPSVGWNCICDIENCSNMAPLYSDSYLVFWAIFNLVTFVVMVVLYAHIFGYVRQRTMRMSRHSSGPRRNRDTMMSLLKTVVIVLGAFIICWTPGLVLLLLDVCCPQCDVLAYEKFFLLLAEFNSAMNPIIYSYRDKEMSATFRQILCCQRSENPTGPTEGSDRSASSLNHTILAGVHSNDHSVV

Compound | IC50
N-(2-(difluoromethoxy)-6-methylpyridin-3-yl)-1-(2-(1-(2-hydroxyethyl)piperidin-4-yl)acetyl)-3-(2-isopropylphenyl)azetidine-3-carboxamide [Ex 12-140] | 122 nM
Cc1ccc(NC(=O)C2(c3ccccc3C(C)C)CN(C(=O)CS(=O)(=O)O)C2)c(OC(F)F)n1 [Ex 12-3, 2-(3-((2-(difluoromethoxy)-6-methylpyridin-3-yl)carbamoyl)-3-(2-isopropylphenyl)azetidin-1-yl)-2-oxoethane-1-sulfonic acid] | 16 nM
Cc1ccc(NC(=O)C2(c3ccccc3C(C)C)CCN(C(=O)CC(=O)O)CC2)c(OC(F)F)n1 [Ex 12-66, 3-(4-((2-(difluoromethoxy)-6-methylpyridin-3-yl)carbamoyl)-4-(2-isopropylphenyl)piperidin-1-yl)-3-oxopropanoic acid] | 12 nM
Cc1ccc(NC(=O)C2(c3ccccc3C(C)C)CCNC2)c(OC(F)F)n1 (centres unmarked) [Ex 10, N-(2-(difluoromethoxy)-6-methylpyridin-3-yl)-3-(2-isopropylphenyl)pyrrolidine-3-carboxamide] | 7 nM
Cc1ccc(NC(=O)C2(c3ccccc3C(C)C)CN(C(=O)[C@H]3CNCCO3)C2)c(OC(F)F)n1 [Ex 12-42, (R)-N-(2-(difluoromethoxy)-6-methylpyridin-3-yl)-3-(2-isopropylphenyl)-1-(morpholine-2-carbonyl)azetidine-3-carboxamide] | 71 nM
Cc1ccc(NC(=O)C2(c3ccccc3C(C)C)CN(C(=O)CC3(C(=O)O)CCOC3)C2)c(OC(F)F)n1 (centres unmarked) [Ex 12-123, 3-(2-(3-((2-(difluoromethoxy)-6-methylpyridin-3-yl)carbamoyl)-3-(2-isopropylphenyl)azetidin-1-yl)-2-oxoethyl)tetrahydrofuran-3-carboxylic acid] | 41 nM
Cc1ccc(NC(=O)C2(c3ccccc3C(C)C)CN(C(=O)CCCc3nnn[nH]3)C2)c(OC(F)F)n1 [Ex 12-30, 1-(4-(1H-tetrazol-5-yl)butanoyl)-N-(2-(difluoromethoxy)-6-methylpyridin-3-yl)-3-(2-isopropylphenyl)azetidine-3-carboxamide] | 25 nM
Cc1ccc(NC(=O)C2(c3ccccc3C(C)C)CN(C(=O)C3(CC(=O)O)COC3)C2)c(OC(F)F)n1 [Ex 12-99, 2-(3-(3-((2-(difluoromethoxy)-6-methylpyridin-3-yl)carbamoyl)-3-(2-isopropylphenyl)azetidine-1-carbonyl)oxetan-3-yl)acetic acid] | 16 nM
CCCc1ccccc1C1(C(=O)Nc2ccc(C)nc2OC(F)F)CNC1 [Ex 29, N-(2-(difluoromethoxy)-6-methylpyridin-3-yl)-3-(2-propylphenyl)azetidine-3-carboxamide] | 420 nM
CCOC(=O)/C=C/C(=O)N1CC(C(=O)Nc2ccc(C)nc2OC(F)F)(c2ccccc2C(C)C)C1 [Ex 12-74, ethyl (E)-4-(3-((2-(difluoromethoxy)-6-methylpyridin-3-yl)carbamoyl)-3-(2-isopropylphenyl)azetidin-1-yl)-4-oxobut-2-enoate] | 97 nM
Cc1ccc(NC(=O)C2(c3ccccc3C(C)C)CN(c3noc(O)n3)C2)c(OC(F)F)n1 [Ex 21, N-(2-(difluoromethoxy)-6-methylpyridin-3-yl)-1-(5-hydroxy-1,2,4-oxadiazol-3-yl)-3-(2-isopropylphenyl)azetidine-3-carboxamide] | 12 nM
CCN(CC(=O)O)CC(=O)N1CC(C(=O)Nc2ccc(C)nc2OC(F)F)(c2ccccc2C(C)C)C1 [Ex 58, N-(2-(3-((2-(difluoromethoxy)-6-methylpyridin-3-yl)carbamoyl)-3-(2-isopropylphenyl)azetidin-1-yl)-2-oxoethyl)-N-ethylglycine] | 48 nM
Cc1ccc(NC(=O)C2(c3ccccc3C(C)C)CN(CCOCC(=O)O)C2)c(OC(F)F)n1 [Ex 11-75, 2-(2-(3-((2-(difluoromethoxy)-6-methylpyridin-3-yl)carbamoyl)-3-(2-isopropylphenyl)azetidin-1-yl)ethoxy)acetic acid] | 29 nM
CCOC(=O)CC(=O)N1CCC(C(=O)Nc2ccc(C)nc2OC(F)F)(c2ccccc2C(C)C)CC1 [Ex 12-65, ethyl-3-(4-((2-(difluoromethoxy)-6-methylpyridin-3-yl)carbamoyl)-4-(2-isopropylphenyl)piperidin-1-yl)-3-oxopropanoate] | 3 nM
Cc1ccc(NC(=O)C2(c3ccccc3C(C)C)CN(C(=O)CCOCCOCCO)C2)c(OC(F)F)n1 [Ex 12-51, N-(2-(difluoromethoxy)-6-methylpyridin-3-yl)-1-(3-(2-(2-hydroxyethoxy)ethoxy)propanoyl)-3-(2-isopropylphenyl)azetidine-3-carboxamide] | 360 nM

The next lines start with the values.

IC50 | Compound
10 nM | COC(=O)c1ccc(N2CC(C(=O)Nc3ccc(C)nc3OC(F)F)(c3ccccc3C(C)C)C2)nn1 [Ex 18-6, methyl 6-(3-((2-(difluoromethoxy)-6-methylpyridin-3-yl)carbamoyl)-3-(2-isopropylphenyl)azetidin-1-yl)pyridazine-3-carboxylate]
185 nM | Cc1ccc(NC(=O)C2(c3ccccc3C3CCOCC3)CN(C(=O)CC(C)(C)C(=O)O)C2)c(OC(F)F)n1 [Ex 31-6, 4-(3-((2-(difluoromethoxy)-6-methylpyridin-3-yl)carbamoyl)-3-(2-(tetrahydro-2H-pyran-4-yl)phenyl)azetidin-1-yl)-2,2-dimethyl-4-oxobutanoic acid]
8 nM | Cc1ccc(NC(=O)C2(c3ccccc3C(C)C)CN(c3cnc(C4(C(=O)O)CC4)nc3)C2)c(OC(F)F)n1 [Ex 18-17, 1-(5-(3-((2-(difluoromethoxy)-6-methylpyridin-3-yl)carbamoyl)-3-(2-isopropylphenyl)azetidin-1-yl)pyrimidin-2-yl)cyclopropane-1-carboxylic acid]
3 nM | Cc1ccc(NC(=O)C2(c3ccccc3C(C)C)CN(c3ncc(F)cn3)C2)c(OC(F)F)n1 [Ex 18-33, N-(2-(difluoromethoxy)-6-methylpyridin-3-yl)-1-(5-fluoropyrimidin-2-yl)-3-(2-isopropylphenyl)azetidine-3-carboxamide]
560 nM | CCOC(=O)c1ccnc(N2CC(C(=O)Nc3ccc(C)nc3OC(F)F)(c3ccccc3C(C)C)C2)n1 [Ex 18-14, ethyl 2-(3-((2-(difluoromethoxy)-6-methylpyridin-3-yl)carbamoyl)-3-(2-isopropylphenyl)azetidin-1-yl)pyrimidine-4-carboxylate]
86 nM | Cc1ccc(NC(=O)C2(c3ccccc3C(C)C)CN(C(=O)N[C@H](C)C(=O)O)C2)c(OC(F)F)n1 [Ex 17-24, (3-((2-(difluoromethoxy)-6-methylpyridin-3-yl)carbamoyl)-3-(2-isopropylphenyl)azetidine-1-carbonyl)-D-alanine]
69 nM | CC(=O)NS(=O)(=O)N1CC(C(=O)Nc2ccc(C)nc2OC(F)F)(c2ccccc2C(C)C)C1 [Ex 16-1, 1-(N-acetylsulfamoyl)-N-(2-(difluoromethoxy)-6-methylpyridin-3-yl)-3-(2-isopropylphenyl)azetidine-3-carboxamide]
29 nM | COC(=O)C1(COC(=O)N2CC(C(=O)Nc3ccc(C)nc3OC(F)F)(c3ccccc3C(C)C)C2)COC1 [Ex 14-13, (3-(methoxycarbonyl)oxetan-3-yl)methyl 3-((2-(difluoromethoxy)-6-methylpyridin-3-yl)carbamoyl)-3-(2-isopropylphenyl)azetidine-1-carboxylate]
55 nM | Cc1ccc(NC(=O)C2(c3ccccc3C(C)C)CN(S(=O)(=O)CCCCC(=O)O)C2)c(OC(F)F)n1 [Ex 13-19, 5-((3-((2-(difluoromethoxy)-6-methylpyridin-3-yl)carbamoyl)-3-(2-isopropylphenyl)azetidin-1-yl)sulfonyl)pentanoic acid]
4 nM | Cc1ccc(NC(=O)C2(c3ccccc3C(C)C)CN(S(=O)(=O)CCC(=O)O)C2)c(OC(F)F)n1 [Ex 13-5, 3-((3-((2-(difluoromethoxy)-6-methylpyridin-3-yl)carbamoyl)-3-(2-isopropylphenyl)azetidin-1-yl)sulfonyl)propanoic acid]
26 nM | Cc1ccc(NC(=O)C2(c3ccccc3C(C)C)CN(C(=O)N[C@H](C(=O)O)C(C)C)C2)c(OC(F)F)n1 [Ex 17-7, (3-((2-(difluoromethoxy)-6-methylpyridin-3-yl)carbamoyl)-3-(2-isopropylphenyl)azetidine-1-carbonyl)-L-valine]
120 nM | CCOC(=O)c1nccc(N2CC(C(=O)Nc3ccc(C)nc3OC(F)F)(c3ccccc3C(C)C)C2)n1 [Ex 18-10, ethyl 4-(3-((2-(difluoromethoxy)-6-methylpyridin-3-yl)carbamoyl)-3-(2-isopropylphenyl)azetidin-1-yl)pyrimidine-2-carboxylate]
41 nM | CC(C)c1ccccc1C1(C(=O)Nc2cccnc2OC(F)F)CN(c2nc(C(=O)O)co2)C1 [Ex 18-30, 2-(3-((2-(difluoromethoxy)pyridin-3-yl)carbamoyl)-3-(2-isopropylphenyl)azetidin-1-yl)oxazole-4-carboxylic acid]
63 nM | COc1cnc(NC(=O)C2(c3ccccc3C(C)C)CN(S(N)(=O)=O)C2)c(OC)c1 [Ex 81-5, N-(3,5-dimethoxypyridin-2-yl)-3-(2-isopropylphenyl)-1-sulfamoylazetidine-3-carboxamide]
83 nM | CC(=O)NS(=O)(=O)CC(=O)N1CC(C(=O)Nc2ccc(C)nc2OC(F)F)(c2ccccc2C(C)C)C1 [Ex 16-3, 1-(2-(N-acetylsulfamoyl)acetyl)-N-(2-(difluoromethoxy)-6-methylpyridin-3-yl)-3-(2-isopropylphenyl)azetidine-3-carboxamide]
20 nM | CCOC(=O)c1cnc(N2CC(C(=O)Nc3ccc(C)nc3OC(F)F)(c3ccccc3C(C)C)C2)o1 [Ex 18-31, ethyl 2-(3-((2-(difluoromethoxy)-6-methylpyridin-3-yl)carbamoyl)-3-(2-isopropylphenyl)azetidin-1-yl)oxazole-5-carboxylate]
5 nM | CC(C)c1cccnc1C1(C(=O)Nc2ncc(Cl)cc2OC(F)F)CN(S(N)(=O)=O)C1 [Example 81-7, N-(5-chloro-3-(difluoromethoxy)pyridin-2-yl)-3-(3-isopropylpyridin-2-yl)-1-sulfamoylazetidine-3-carboxamide]
